# From ChEMBL document CHEMBL1201862, “PubChem BioAssay data set” (2004)
# Active and inactive are the calls of the source.
# Tests used:
# [1] = molecular target: T1, E3 ubiquitin-protein ligase XIAP (Homo sapiens, UniProt P98170); assay: Counter Screen using XIAP-Bir3 for Chemical Antagonists of Bir1/2 domains of IAP-family anti-apoptotic proteins. [Related pubchem assays (depositor defined):AID1018, AID1449, AID1514, AID1638, AID1749, AID1750, AID488957, AID488963]
# [2] = molecular target: T1, E3 ubiquitin-protein ligase XIAP; assay: XIAP antagonists, biochemical, IAP family, fluorescence polarization (AID 1018); assay type: functional
# [3] = Luminescence Cell-Based Dose Confirmation HTS to Identify Activators of 5'UTR Stem-Loop Driven Alpha-Synuclein mRNA Translation in H4 Neuroglioblastoma Cells. [Related pubchem assays: 1829 (Project Summary), 1814 (Primary HTS)]; assay type: functional
# [4] = Luminescence Cell-Based Dose Response HTS to Identify Activators of Luciferase Translation or Activity in H4 […] Cells. [Related pubchem assays: 1829 (Project Summary), 1814 (Primary HTS)]; assay type: functional
# H4 = assay: Luminescence Cell-Based Dose Response HTS to Identify Activators of 5'UTR Stem-Loop Driven Prion Protein mRNA Translation in H4 Neuroglioblastoma Cells. [Related pubchem assays: 1829 (Project Summary), 1814 (Primary HTS)]; assay type: functional; conditions: Homo sapiens
# Beta-galactosidase = Beta-galactosidase (Escherichia coli, UniProt Q8VNN2); assay: beta-galactosidase enzyme inhibitors and activators, dose response, artefact control for CCR6 antagonist project, biochemical, E. coli enzyme, set 3 (AID 504712); assay type: functional
# [5] = molecular target: T2, Tyrosine-protein phosphatase non-receptor type 7 (Homo sapiens, UniProt P35236); assay: redox-dependent HePTP inhibition, mechanism study, biochemical, fluorescence (AID 2068); assay type: functional
# T2 sequence (P35236 whole entry): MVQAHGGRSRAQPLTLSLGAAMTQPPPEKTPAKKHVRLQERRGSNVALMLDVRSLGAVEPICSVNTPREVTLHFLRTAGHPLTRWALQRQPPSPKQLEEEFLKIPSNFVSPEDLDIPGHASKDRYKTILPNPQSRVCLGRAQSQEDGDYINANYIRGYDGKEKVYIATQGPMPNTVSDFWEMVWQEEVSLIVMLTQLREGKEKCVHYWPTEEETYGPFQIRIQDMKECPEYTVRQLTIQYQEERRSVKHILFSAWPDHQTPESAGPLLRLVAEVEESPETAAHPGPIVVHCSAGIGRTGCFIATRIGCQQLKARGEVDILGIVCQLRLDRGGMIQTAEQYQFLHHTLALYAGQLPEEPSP
# [6] = molecular target: Glyceraldehyde-3-phosphate dehydrogenase (Homo sapiens, UniProt P04406)
# Bcl-2-like protein 10 = molecular target: T3, Bcl-2-like protein 10 (Homo sapiens, UniProt Q9HD36); assay: displacers of TR3 peptide from Bcl-B, primary screen, selectivity assay for Bfl-1 inhibitor project, biochemical, fluorescence polarization, FITC-TR3 peptide (AID 748);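 also: fluorescence polarization from a fluorescein-labelled TR3 peptide binding purified Bcl-B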
# T3 sequence (Q9HD36 whole entry): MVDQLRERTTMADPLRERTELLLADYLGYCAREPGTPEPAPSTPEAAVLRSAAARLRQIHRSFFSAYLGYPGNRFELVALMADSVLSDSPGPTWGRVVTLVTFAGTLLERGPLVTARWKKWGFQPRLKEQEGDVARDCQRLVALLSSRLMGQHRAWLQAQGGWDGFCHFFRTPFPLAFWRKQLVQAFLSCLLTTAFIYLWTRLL
# [7] = molecular target: DNA dC->dU-editing enzyme APOBEC-3A (Homo sapiens, UniProt P31941); assay: Dose Response confirmation of small molecule APOBEC3A DNA Deaminase Inhibitors via a fluorescence-based single-stranded DNA deaminase assay. [Related pubchem assays (depositor defined):AID493011, AID493024]; assay type: functional
# [8] = molecular target: DNA dC->dU-editing enzyme APOBEC-3G (Homo sapiens, UniProt Q9HC16); assay type: functional;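 also: Dose-response counterscreen measuring inhibition of APOBEC3G DNA deaminase activity, run while confirming APOBEC3A inhibitors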
# Trypsin = Trypsin (Sus scrofa, UniProt P00761); assay: porcine trypsin inhibitors, dose response, selectivity assay for Rce1 protease inhibitor project, biochemical, quenched peptide fluorescence, cherry-pick (AID 488789)
# CAAX prenyl protease 2 = molecular target: T4, CAAX prenyl protease 2 (Saccharomyces cerevisiae S288c, UniProt Q03530); assay type: biochemical
# T4 sequence (Q03530 whole entry): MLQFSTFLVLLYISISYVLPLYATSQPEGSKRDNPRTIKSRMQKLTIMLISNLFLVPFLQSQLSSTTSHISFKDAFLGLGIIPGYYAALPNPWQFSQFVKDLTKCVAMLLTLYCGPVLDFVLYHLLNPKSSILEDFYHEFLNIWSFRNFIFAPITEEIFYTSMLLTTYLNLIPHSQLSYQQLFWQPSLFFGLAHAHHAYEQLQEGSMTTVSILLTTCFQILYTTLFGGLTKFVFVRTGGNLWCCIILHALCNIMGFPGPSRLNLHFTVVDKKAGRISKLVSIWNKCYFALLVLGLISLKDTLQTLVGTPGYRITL
# [9] = molecular target: T5, Voltage-gated N-type calcium channel alpha-1B subunit/Amyloid beta A4 precursor protein-binding family A member 1 (Homo sapiens, UniProt Q00975+Q02410); assay type: protein assay
# [10] = molecular target: T5, Voltage-gated N-type calcium channel alpha-1B subunit/Amyloid beta A4 precursor protein-binding family A member 1; assay type: protein assay; remark: listed apart in the source
# [11] = molecular target: Induced myeloid leukemia cell differentiation protein Mcl-1 (Homo sapiens, UniProt Q07820); assay type: functional
# Genome polyprotein = Genome polyprotein (dengue virus type 2, UniProt P29990); assay: Dengue-2 NS5 methyltransferase inhibitors, primary screen, biochemical, confirmation dose response (AID 588689); assay type: functional
# [12] = molecular target: T6, Carboxy-terminal domain RNA polymerase II polypeptide A small phosphatase 1 (Homo sapiens, UniProt Q9GZU7); assay: inhibitors of CTDSP1, concentration-response testing, biochemical assay, absorbance-based, actives from ultra-high-throughput screening (AID 540297); assay type: functional
# T6 sequence (Q9GZU7 whole entry): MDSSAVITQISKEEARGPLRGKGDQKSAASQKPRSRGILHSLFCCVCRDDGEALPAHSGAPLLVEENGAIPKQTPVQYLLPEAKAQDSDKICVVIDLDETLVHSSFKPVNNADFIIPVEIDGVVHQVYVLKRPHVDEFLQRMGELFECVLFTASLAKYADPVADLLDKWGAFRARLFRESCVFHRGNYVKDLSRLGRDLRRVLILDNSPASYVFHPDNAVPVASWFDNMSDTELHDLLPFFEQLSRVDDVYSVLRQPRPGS
# [13] = molecular target: DNA (cytosine-5)-methyltransferase 1 (Homo sapiens, UniProt P26358); assay: DNMT1 methyltransferase inhibitors, confirmation, biochemical, fluorescent molecular beacon (AID 602386); assay type: functional
# T1 sequence (P98170 whole entry): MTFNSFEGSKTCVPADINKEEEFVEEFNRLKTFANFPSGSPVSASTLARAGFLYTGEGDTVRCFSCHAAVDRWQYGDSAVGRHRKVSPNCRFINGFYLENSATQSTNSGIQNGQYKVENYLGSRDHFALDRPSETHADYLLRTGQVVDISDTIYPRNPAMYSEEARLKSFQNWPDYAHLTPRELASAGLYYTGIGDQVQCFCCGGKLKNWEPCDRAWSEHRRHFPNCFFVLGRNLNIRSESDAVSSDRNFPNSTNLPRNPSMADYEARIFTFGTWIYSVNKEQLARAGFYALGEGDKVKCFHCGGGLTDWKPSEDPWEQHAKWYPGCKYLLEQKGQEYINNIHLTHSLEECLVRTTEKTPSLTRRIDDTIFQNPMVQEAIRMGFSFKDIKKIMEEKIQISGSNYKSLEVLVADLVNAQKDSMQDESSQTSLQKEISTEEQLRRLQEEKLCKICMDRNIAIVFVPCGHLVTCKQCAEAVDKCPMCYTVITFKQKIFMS
# T5 sequence (Q00975 whole entry): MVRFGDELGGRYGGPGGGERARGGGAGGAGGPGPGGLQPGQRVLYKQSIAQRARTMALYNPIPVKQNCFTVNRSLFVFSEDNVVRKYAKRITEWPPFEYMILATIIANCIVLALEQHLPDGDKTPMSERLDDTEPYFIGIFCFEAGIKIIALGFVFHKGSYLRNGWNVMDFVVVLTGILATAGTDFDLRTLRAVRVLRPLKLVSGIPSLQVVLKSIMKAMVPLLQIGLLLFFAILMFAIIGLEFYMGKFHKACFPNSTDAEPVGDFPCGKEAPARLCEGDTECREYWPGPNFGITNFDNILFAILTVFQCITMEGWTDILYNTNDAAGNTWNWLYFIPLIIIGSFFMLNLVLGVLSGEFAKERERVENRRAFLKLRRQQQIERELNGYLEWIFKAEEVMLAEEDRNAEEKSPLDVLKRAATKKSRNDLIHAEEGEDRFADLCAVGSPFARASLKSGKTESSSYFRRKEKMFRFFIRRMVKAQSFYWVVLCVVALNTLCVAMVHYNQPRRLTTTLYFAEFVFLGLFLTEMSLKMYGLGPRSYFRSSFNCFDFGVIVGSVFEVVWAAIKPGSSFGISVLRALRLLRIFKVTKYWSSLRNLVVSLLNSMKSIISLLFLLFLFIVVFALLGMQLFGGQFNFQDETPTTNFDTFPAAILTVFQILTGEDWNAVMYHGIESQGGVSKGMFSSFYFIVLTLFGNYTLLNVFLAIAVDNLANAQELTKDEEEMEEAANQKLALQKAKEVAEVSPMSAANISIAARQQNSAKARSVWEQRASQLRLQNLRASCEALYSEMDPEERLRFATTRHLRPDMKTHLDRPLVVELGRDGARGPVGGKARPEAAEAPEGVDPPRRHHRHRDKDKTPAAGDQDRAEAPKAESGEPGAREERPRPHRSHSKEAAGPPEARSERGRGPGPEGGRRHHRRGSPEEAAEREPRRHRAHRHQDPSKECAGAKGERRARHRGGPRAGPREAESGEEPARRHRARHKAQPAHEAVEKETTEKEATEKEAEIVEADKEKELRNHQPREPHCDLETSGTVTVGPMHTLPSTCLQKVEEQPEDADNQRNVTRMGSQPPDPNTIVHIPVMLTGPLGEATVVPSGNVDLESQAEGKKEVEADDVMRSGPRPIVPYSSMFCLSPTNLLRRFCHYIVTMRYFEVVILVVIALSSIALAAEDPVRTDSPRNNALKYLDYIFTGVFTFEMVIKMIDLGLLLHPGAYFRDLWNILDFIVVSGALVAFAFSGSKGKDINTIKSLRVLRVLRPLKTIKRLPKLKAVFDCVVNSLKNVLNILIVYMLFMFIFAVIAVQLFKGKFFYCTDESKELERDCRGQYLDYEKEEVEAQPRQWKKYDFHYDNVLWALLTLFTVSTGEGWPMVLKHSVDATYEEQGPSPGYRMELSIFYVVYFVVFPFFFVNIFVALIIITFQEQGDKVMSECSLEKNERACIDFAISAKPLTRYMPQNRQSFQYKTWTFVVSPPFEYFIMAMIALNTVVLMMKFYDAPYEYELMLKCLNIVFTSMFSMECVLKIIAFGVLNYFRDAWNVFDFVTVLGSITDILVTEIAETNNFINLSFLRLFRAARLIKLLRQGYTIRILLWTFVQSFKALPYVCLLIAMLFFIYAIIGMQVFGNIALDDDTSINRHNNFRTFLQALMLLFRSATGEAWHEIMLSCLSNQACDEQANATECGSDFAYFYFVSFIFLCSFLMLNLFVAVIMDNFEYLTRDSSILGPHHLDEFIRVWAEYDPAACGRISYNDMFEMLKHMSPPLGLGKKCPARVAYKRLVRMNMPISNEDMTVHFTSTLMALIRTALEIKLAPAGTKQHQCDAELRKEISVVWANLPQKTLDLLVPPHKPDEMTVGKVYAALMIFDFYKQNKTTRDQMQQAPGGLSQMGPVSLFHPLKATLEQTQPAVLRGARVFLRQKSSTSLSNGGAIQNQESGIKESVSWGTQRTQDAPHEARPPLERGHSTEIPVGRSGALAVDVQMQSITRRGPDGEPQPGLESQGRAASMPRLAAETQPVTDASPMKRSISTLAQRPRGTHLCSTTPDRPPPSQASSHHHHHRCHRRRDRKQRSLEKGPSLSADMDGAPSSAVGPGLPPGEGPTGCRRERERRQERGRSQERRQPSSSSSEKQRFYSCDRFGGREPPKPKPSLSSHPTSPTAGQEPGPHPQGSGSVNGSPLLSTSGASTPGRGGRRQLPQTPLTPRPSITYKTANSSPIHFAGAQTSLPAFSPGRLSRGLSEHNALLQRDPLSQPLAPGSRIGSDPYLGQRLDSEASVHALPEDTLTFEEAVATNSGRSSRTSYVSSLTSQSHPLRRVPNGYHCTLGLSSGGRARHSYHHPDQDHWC
# T5 sequence (Q02410 whole entry): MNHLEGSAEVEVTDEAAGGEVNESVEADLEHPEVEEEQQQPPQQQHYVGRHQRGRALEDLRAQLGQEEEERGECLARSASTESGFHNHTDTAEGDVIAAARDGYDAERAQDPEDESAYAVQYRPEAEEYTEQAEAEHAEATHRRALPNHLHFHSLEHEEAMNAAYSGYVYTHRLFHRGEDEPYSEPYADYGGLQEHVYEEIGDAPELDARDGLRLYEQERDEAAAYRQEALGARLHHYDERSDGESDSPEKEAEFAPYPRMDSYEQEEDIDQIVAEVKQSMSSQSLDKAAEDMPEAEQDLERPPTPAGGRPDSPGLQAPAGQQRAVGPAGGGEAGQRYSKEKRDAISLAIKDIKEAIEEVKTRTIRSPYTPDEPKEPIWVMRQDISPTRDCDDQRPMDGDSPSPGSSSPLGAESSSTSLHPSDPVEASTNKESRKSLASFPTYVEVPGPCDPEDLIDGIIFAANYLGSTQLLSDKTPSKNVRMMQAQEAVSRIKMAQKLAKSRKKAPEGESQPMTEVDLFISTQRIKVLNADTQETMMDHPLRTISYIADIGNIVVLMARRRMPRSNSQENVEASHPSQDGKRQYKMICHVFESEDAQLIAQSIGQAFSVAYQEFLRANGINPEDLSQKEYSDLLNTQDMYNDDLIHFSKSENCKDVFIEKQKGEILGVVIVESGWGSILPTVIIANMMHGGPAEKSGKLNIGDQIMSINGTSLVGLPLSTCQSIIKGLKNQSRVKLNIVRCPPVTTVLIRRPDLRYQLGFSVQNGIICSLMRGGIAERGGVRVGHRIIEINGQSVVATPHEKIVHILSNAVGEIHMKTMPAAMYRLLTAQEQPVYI
# DNA dC->dU-editing enzyme APOBEC-3G, sequence (Q9HC16 whole entry): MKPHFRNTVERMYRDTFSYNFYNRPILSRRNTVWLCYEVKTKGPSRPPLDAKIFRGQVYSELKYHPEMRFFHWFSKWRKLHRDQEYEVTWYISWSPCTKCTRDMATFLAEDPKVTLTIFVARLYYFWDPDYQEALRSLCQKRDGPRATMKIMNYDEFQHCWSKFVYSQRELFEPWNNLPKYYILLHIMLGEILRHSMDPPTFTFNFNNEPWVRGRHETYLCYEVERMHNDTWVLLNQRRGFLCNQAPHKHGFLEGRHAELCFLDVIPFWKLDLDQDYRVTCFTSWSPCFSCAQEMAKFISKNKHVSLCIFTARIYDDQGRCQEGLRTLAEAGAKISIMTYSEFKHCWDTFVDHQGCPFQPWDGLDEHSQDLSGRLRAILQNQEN
# DNA dC->dU-editing enzyme APOBEC-3A, sequence (P31941 whole entry): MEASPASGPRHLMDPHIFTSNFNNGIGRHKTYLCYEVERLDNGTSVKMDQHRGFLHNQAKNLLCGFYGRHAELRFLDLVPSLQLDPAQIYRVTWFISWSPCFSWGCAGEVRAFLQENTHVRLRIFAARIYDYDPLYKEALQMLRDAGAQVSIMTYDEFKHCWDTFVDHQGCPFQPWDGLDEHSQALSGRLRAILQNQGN
# Induced myeloid leukemia cell differentiation protein Mcl-1, sequence (Q07820 whole entry): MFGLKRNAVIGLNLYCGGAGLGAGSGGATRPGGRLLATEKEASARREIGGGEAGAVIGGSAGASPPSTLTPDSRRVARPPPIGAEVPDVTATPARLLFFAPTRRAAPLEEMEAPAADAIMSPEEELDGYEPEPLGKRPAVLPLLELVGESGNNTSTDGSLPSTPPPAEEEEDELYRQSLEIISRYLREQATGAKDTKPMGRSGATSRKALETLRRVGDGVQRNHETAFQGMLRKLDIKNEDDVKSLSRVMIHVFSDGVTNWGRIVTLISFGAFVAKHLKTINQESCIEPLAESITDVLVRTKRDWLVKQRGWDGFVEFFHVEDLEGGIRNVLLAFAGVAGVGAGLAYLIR
# Trypsin, sequence (P00761 whole entry): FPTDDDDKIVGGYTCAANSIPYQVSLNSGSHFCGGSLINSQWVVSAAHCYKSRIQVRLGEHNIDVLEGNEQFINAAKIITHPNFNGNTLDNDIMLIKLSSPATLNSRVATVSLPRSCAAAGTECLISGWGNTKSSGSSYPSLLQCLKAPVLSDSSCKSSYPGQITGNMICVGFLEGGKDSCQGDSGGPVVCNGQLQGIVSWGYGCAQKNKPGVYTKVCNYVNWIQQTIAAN
structure (smiles),measurement,setting,value
c1cc(CNc2ccc(N3CCOCC3)cc2)ccn1,IC50,[1],> 100 µM (inactive)
same,IC50,[2],> 100 µM (not active)
CCCC(=O)N1c2ccccc2C(=C2SC(C(=O)OC)=C(C(=O)OC)S2)C(=S)C1(C)C,EC50,[3],> 60 µM (not active)
same,EC50,[4],> 120 µM (not active)
same,EC50,H4,> 120 µM (not active)
same,IC50,Beta-galactosidase,> 66.6 µM (inactive)
CCCCNC(=O)Nc1ccc2nc(-c3ccco3)c(-c3ccco3)nc2c1,IC50,[5],0.452 µM (active)
COc1ccc(N2CCN(C3=C(Cl)C(=O)N(c4cccc(C)c4)C3=O)CC2)cc1,IC50,[6],> 50 µM (inconclusive)
O=C(CCN1CCc2ccccc21)c1ccc2c(c1)OCCO2,EC50,[3],53.2 µM (active)
same,EC50,[4],110 µM (active)
same,IC50,Bcl-2-like protein 10,59.3 µM (inactive)
same,EC50,H4,46.1 µM (active)
CCN1CCN(S(=O)(=O)c2ccc(Cl)c(C(=O)Nc3ccccc3N3CCOCC3)c2)CC1,IC50,[7],4.8 µM (active)
same,IC50,[8],3.81 µM (active)
COc1cc2cc(C(=O)O)[nH]c2c(OC)c1OC,AC50,Trypsin,23 µM (active)
same,AC50,CAAX prenyl protease 2,> 100 µM (inactive)
COc1ccc(-c2csc(NC(=O)CSc3nc(C)nc4sc(C(=O)O)c(C)c34)n2)cc1,IC50,[9],> 56.8 µM (not active)
same,IC50,[10],> 50 µM (inactive)
same,IC50,[11],7.81 µM (active)
same,IC50,Genome polyprotein,92.7 µM (active)
same,IC50,[12],4.31 µM (active)
same,IC50,[13],14.6 µM (active)
